Measurements: US7022716B2, “Cyclic amine phenyl beta-3 adrenergic receptor agonists” (Wyeth, priority 2000, dated 2006)

These compounds were tested against T1, human β3 adrenergic receptor (Homo sapiens, UniProt P13945) (assay: cAMP (SPA) response in CHO cells transfected with human β3 adrenergic receptor). Conditions: maximal response relative to maximal response of isoproterenol at 10^-5 M.
T1 construct: Full length β3 AR clones (402 amino acids) containing the last 6 amino acids of hβ3-AR are prepared; expressed in transfected cells; host or cells: CHO (Chinese hamster ovary) cells
Type: cell-based
Set-up: key: fraction of maximal isoproterenol (10^-5 M) response
Procedure: Binding to the receptors was measured in Chinese Hamster ovary (CHO) cells that were transfected with adrenergic receptors.
The corresponding primer sequences are described in Mantzoros, C. […] The four fragments are ligated into a pUC 18 plasmid (Gibco-BRL) and sequenced.
CHO cells were grown in 24-well tissue culture plates in Dulbecco's Modified Eagle Media with 10% fetal bovine serum, MEM non-essential amino acids, Penicillin-Streptompycin and Geneticin. On the day of test procedure, growth medium was replaced with preincubation media (Dulbecco's Modified Eagle, Media) and incubated for 30 minutes at 37° C. […] Test compounds were tested over a concentration range of 10^−9 M to 10^−5 M for β3 cells and 10^−8 to 10^−4 M for β1 and β2 transfected cells. Isoproterenol (10^−5 M) was used as an internal standard for comparison of activity. Cells were incubated at 37° C. on a rocker for 30 min with the β3 cells and 15 min for β1 and β2 cells. Incubation was stopped with the addition of 0.2N HCl and neutralized with 2.5N NaOH. The plates, containing the cells and neutralized media, were stored at −20 degrees celsius until ready to test for cAMP using the SPA test kit (Amersham).
Data Analysis and Results: Data collected from the SPA test procedure were analyzed as percent of the maximal isoproterenol response at 10^−5 M. Activity curves were plotted using the SAS statistical and graphics software.

T1 sequence (P13945 whole entry): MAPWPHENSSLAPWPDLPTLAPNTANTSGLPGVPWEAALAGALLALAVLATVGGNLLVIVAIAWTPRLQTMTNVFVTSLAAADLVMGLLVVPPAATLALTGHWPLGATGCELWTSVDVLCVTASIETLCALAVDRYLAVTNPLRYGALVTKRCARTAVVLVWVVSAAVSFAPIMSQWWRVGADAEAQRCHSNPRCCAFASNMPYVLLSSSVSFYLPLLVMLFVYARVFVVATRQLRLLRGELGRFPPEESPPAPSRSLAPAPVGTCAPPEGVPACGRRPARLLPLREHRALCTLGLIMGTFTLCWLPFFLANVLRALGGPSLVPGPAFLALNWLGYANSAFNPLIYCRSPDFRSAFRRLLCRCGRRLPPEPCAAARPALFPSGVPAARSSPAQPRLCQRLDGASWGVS

Point of comparison: `CCCCOc1ccc(S(=O)(=O)Nc2ccc(N3CCC(NCC(O)c4ccc(O)c(NS(C)(=O)=O)c4)CC3)cc2)cc1` (stereo not shown) [Example 281, 4-Butoxy-N-(4-{4-[2-hydroxy-2-(4-hydroxy-3-methanesulfonylamino-phenyl)-ethylamino]-piperidin-1-yl}-phenyl)-benzenesulfonamide], “IA(β3)” value 1.14. Against it:
- CCCCCCNC(=O)Nc1ccc(S(=O)(=O)Nc2ccc(N3CCC(NC[C@H](O)c4ccc(O)c(NS(C)(=O)=O)c4)CC3)cc2)cc1 [Example 276, 4-{[(Hexylamino)carbonyl]amino}-N-(4-{4-[((2R)-2-hydroxy-2-{4-hydroxy-3-[(methylsulfonyl)amino]phenyl}ethyl)amino]-1-piperidinyl}phenyl)benzenesulfonamide] — lower, 1.1
- O=c1[nH]c2cccc(OC[C@@H](O)CNC3CCN(c4ccc(NS(=O)(=O)c5ccc(-n6nnn(CCCC7CCCC7)c6=O)cc5)cc4)CC3)c2[nH]1 [Example 277] — lower, 0.58
- O=c1[nH]c2cccc(OC[C@@H](O)CNC3CCN(c4ccc(NS(=O)(=O)c5ccc(-c6ccccn6)s5)cc4)CC3)c2[nH]1 [Example 278, N-{4-[4-({(2S)-2-Hydroxy-3-[(2-oxo-2,3-dihydro-1H-benzimidazol-4-yl)oxy]propyl}-amino)-1-piperidinyl]phenyl}-5-(2-pyridinyl)-2-thiophenesulfonamide] — lower, 1.04
- COc1ccc(S(=O)(=O)Nc2ccc(N3CCC(NC[C@H](O)COc4ccc(O)cc4)CC3)cc2)cc1OC [Example 279, N-[4-(4-{[(2S)-2-Hydroxy-3-(4-hydroxyphenoxy)propyl]amino}-1-piperidinyl)phenyl]-3,4-dimethoxybenzenesulfonamide] — lower, 0.74
- COc1ccc(S(=O)(=O)Nc2ccc(N3CCC(NCC(O)c4ccc(O)c(NS(C)(=O)=O)c4)CC3)cc2)cc1OC (stereo not shown) [Example 280, N-(4-{4-[(2-Hydroxy-2-{4-hydroxy-3-[(methylsulfonyl)amino]phenyl}ethyl)amino]-1-piperidinyl}phenyl)-3,4-dimethoxybenzenesulfonamide] — higher, 1.16
- CC(=O)Nc1ccc(S(=O)(=O)Nc2ccc(N3CCC(NC[C@H](O)COc4cccc5[nH]c6ccccc6c45)CC3)cc2)cc1 [Example 282, N-(4-{[4-(4-{[(2S)-3-(9H-Carbazol-4-yloxy)-2-hydroxypropyl]amino}-1-piperidinyl)-anilino]sulfonyl}phenyl)acetamide] — lower, 0.63
- Cc1c(S(=O)(=O)Nc2ccc(N3CCC(NC[C@H](O)COc4cccc5[nH]c(=O)[nH]c45)CC3)cc2)sc2ccc(Cl)cc12 [Example 283, 5-Chloro-N-{4-[4-({(2S)-2-hydroxy-3-[(2-oxo-2,3-dihydro-1H-benzimidazol-4-yl)oxy]propyl}amino)-1-piperidinyl]phenyl}-3-methyl-1-benzothiophene-2-sulfonamide] — lower, 0.81
- N#Cc1ccc(S(=O)(=O)Nc2ccc(N3CCC(NC[C@H](O)COc4cccc5[nH]c(=O)[nH]c45)CC3)cc2)cc1 [Example 284, 4-Cyano-N-{4-[4-({(2S)-2-hydroxy-3-[(2-oxo-2,3-dihydro-1H-benzimidazol-4-yl)oxy]propyl}amino)-1-piperidinyl]phenyl}benzenesulfonamide] — lower, 0.87
- N#Cc1ccc(S(=O)(=O)N(c2ccc(N3CCC(NC[C@H](O)COc4cccc5[nH]c(=O)[nH]c45)CC3)cc2)S(=O)(=O)c2ccc(C#N)cc2)cc1 [Example 285, 4-Cyano-N-[(4-cyanophenyl)sulfonyl]-N-{4-[4-({(2S)-2-hydroxy-3-[(2-oxo-2,3-dihydro-1H-benzimidazol-4-yl)oxy]propyl}amino)-1-piperidinyl]phenyl}benzenesulfonamide] — lower, 0.76
- O=c1[nH]c2cccc(OC[C@@H](O)CNC3CCN(c4ccc(NS(=O)(=O)c5sc(Cl)cc5Br)cc4)CC3)c2[nH]1 [Example 286, 3-Bromo-5-chloro-N-{4-[4-({(2S)-2-hydroxy-3-[(2-oxo-2,3-dihydro-1H-benzimidazol-4-yl)oxy]propyl}amino)-1-piperidinyl]phenyl}-2-thiophenesulfonamide] — lower, 0.91
- O=c1[nH]c2cccc(OC[C@@H](O)CNC3CCN(c4ccc(NS(=O)(=O)c5ccc(-c6ccon6)s5)cc4)CC3)c2[nH]1 [Example 287, N-{4-[4-({(2S)-2-Hydroxy-3-[(2-oxo-2,3-dihydro-1H-benzimidazol-4-yl)oxy]propyl}-amino)-1-piperidinyl]phenyl}-5-(3-isoxazolyl)-2-thiophenesulfonamide] — lower, 0.92
- CS(=O)(=O)Nc1cc(C(O)CNC2CCN(c3ccc(NS(=O)(=O)c4ccc(-n5nnn(CCCC6CCCC6)c5=O)cc4)cc3)CC2)ccc1O (stereo not shown) [Example 288, 4-[4-(3-Cyclopentyl-propyl)-5-oxo-4,5-dihydro-tetrazol-1-yl]-N-(4-{4-[2-hydroxy-2-(4-hydroxy-3-methanesulfonylamino-phenyl)-ethaylamino]-piperidin-1-yl}-phenyl)-benzenesulfonamide] — higher, 1.24
- CCCCOc1ccc(S(=O)(=O)Nc2ccc(N3CCC(NCC(O)COc4cccc5[nH]c6ccccc6c45)CC3)cc2)cc1 (stereo not shown) [Example 289, 4-Butoxy-N-(4-{4-[3-(9H-carbazol-4-yloxy)-2-hydroxy-propylamino]-piperidin-1-yl}-phenyl)-benzenesulfonamide] — lower, 0.59
- CCCCCCNC(=O)Nc1ccc(S(=O)(=O)Nc2ccc(N3CCC(NC[C@H](O)COc4cccc5[nH]c6ccccc6c45)CC3)cc2)cc1 [Example 290] — lower, 0.72
- CC(=O)Nc1ccc(S(=O)(=O)Nc2ccc(N3CCC(NC[C@H](O)c4ccc(O)c(NS(C)(=O)=O)c4)CC3)cc2)cc1 [Example 291, N-{4-[(4-{4-[((2R)-2-Hydroxy-2-{4-hydroxy-3-[(methylsulfonyl)amino]-phenyl}ethyl)amino]-1-piperidinyl}anilino)sulfonyl]phenyl}acetamide] — lower, 1.07
- COc1ccc(S(=O)(=O)Nc2ccc(N3CCC(NC[C@H](O)COc4cccc5[nH]c6ccccc6c45)CC3)cc2)cc1OC [Example 292, N-[4-(4-{[(2S)-3-(9H-Carbazol-4-yloxy)-2-hydroxypropyl]amino}-1-piperidinyl)phenyl]-3,4-dimethoxybenzenesulfonamide] — lower, 0.75
- O=S(=O)(Nc1ccc(N2CCC(NC[C@H](O)COc3ccc(O)cc3)CC2)cc1)c1ccc(-c2ccccn2)s1 [Example 293, N-[4-(4-{[(2S)-2-Hydroxy-3-(4-hydroxyphenoxy)propyl]amino}-1-piperidinyl)phenyl]-5-(2-pyridinyl)-2-thiophenesulfonamide] — lower, 0.94
- CS(=O)(=O)Nc1cc(C(O)CNC2CCN(c3ccc(NS(=O)(=O)c4ccc(-c5ccccn5)s4)cc3)CC2)ccc1O (stereo not shown) [Example 294, N-(4-{4-[(2-Hydroxy-2-{4-hydroxy-3-[(methylsulfonyl)amino]phenyl}ethyl)amino]-1-piperidinyl}phenyl)-5-(2-pyridinyl)-2-thiophenesulfonamide] — lower, 1.07
- CCCCS(=O)(=O)Nc1ccc(N2CCC(NCC(O)c3ccc(O)c(NS(C)(=O)=O)c3)CC2)cc1 (stereo not shown) [Example 295, N-(4-{4-[(2-Hydroxy-2-{4-hydroxy-3-[(methylsulfonyl)amino]phenyl}ethyl)amino]-1-piperidinyl}phenyl)-1-butanesulfonamide] — lower, 0.87
- CCCCS(=O)(=O)Nc1ccc(N2CCC(NC[C@H](O)COc3cccc4[nH]c(=O)[nH]c34)CC2)cc1 [Example 296, N-{4-[4-({(2S)-2-Hydroxy-3-[(2-oxo-2,3-dihydro-1H-benzimidazol-4-yl)oxy]propyl}amino)-1-piperidinyl]phenyl}-1-butanesulfonamide] — lower, 0.81
- CCCCCCCCS(=O)(=O)Nc1ccc(N2CCC(NCC(O)c3ccc(O)c(NS(C)(=O)=O)c3)CC2)cc1 (stereo not shown) [Example 297, N-(4-{4-[(2-Hydroxy-2-{4-hydroxy-3-[(methylsulfonyl)amino]phenyl}ethyl)amino]-1-piperidinyl}phenyl)-1-octanesulfonamide] — lower, 1
- CCCCCCCCS(=O)(=O)Nc1ccc(N2CCC(NC[C@H](O)COc3cccc4[nH]c(=O)[nH]c34)CC2)cc1 [Example 298, N-{4-[4-({(2S)-2-Hydroxy-3-[(2-oxo-2,3-dihydro-1H-benzimidazol-4-yl)oxy]propyl}amino)-1-piperidinyl]phenyl}-1-octanesulfonamide] — lower, 0.78
- O=c1[nH]c2cccc(OC[C@@H](O)CNC3CCN(c4ccc(NS(=O)(=O)c5ccc(S(=O)(=O)c6ccc(C(F)(F)F)cn6)s5)cc4)CC3)c2[nH]1 [Example 299] — lower, 1.1
- O=S(=O)(Nc1ccc(N2CCC(NC[C@H](O)COc3ccc(O)cc3)CC2)cc1)c1ccc(S(=O)(=O)c2ccc(C(F)(F)F)cn2)s1 [Example 300, N-[4-(4-{[(2S)-2-Hydroxy-3-(4-hydroxyphenoxy)propyl]amino}-1-piperidinyl)phenyl]-5-{[5-(trifluoromethyl)-2-pyridinyl]sulfonyl}-2-thiophenesulfonamide] — lower, 0.78
